Results published in ChEMBL document CHEMBL5705888, “Substrate specificity and inhibitors of LRRK2, a protein kinase mutated in Parkinson's disease” (Biochem J, 2009).

Legend:
[1] = biological target: Aurora kinase B (Homo sapiens) (UniProt Q96GD4); experiment: Inhibition of Aurora B kinase (unknown origin) at 10 uM incubated for 30 mins in presence of [gamma-33P]ATP by multidrop micro reagent based assay relative to control; values are per cent of control
[2] = biological target: T1, Serine/threonine-protein kinase 3 (Homo sapiens) (UniProt Q13188); experiment: Inhibition of MST2 (unknown origin) at 10 uM incubated for 30 mins in presence of [gamma-33P]ATP by multidrop micro reagent based assay relative to control; values are per cent of control
T1 sequence (whole entry): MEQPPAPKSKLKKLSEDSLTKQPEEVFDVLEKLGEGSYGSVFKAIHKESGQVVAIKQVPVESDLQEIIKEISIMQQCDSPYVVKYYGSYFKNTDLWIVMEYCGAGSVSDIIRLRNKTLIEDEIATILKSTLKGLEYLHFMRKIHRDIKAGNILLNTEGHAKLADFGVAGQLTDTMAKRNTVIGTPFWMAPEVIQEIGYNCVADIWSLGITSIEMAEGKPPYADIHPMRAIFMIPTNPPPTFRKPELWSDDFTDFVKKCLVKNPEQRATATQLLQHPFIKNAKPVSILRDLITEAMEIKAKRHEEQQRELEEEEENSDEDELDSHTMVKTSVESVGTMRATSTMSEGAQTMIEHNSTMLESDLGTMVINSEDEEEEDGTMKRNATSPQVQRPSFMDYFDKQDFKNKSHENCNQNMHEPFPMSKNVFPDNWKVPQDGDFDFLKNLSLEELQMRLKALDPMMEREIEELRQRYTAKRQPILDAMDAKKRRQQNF

[3] = biological target: Mitogen-activated protein kinase 14 (Homo sapiens) (UniProt Q16539); experiment: Inhibition of p38alpha MAPK (unknown origin) at 10 uM incubated for 30 mins in presence of [gamma-33P]ATP by multidrop micro reagent based assay relative to control; values are per cent of control
[4] = organism: Homo sapiens; experiment: Inhibition of PHK (unknown origin) at 10 uM incubated for 30 mins in presence of [gamma-33P]ATP by multidrop micro reagent based assay relative to control; values are per cent of control
[5] = biological target: Serine/threonine-protein kinase Nek6 (Homo sapiens) (UniProt Q9HC98); experiment: Residual activity of NEK6 (unknown origin) at 10 uM incubated for 30 mins in presence of [gamma-33P]ATP by multidrop micro reagent based assay relative to control
[6] = biological target: Serine/threonine-protein kinase PAK 6 (Homo sapiens) (UniProt Q9NQU5); experiment: Inhibition of PAK6 (unknown origin) at 10 uM incubated for 30 mins in presence of [gamma-33P]ATP by multidrop micro reagent based assay relative to control; values are per cent of control
[7] = biological target: Insulin receptor-related protein (Homo sapiens) (UniProt P14616); experiment: Inhibition of IRR (unknown origin) at 1 uM incubated for 30 mins in presence of [gamma-33P]ATP by multidrop micro reagent based assay relative to control
[8] = biological target: T2, Dual specificity tyrosine-phosphorylation-regulated kinase 3 (Homo sapiens) (UniProt O43781); experiment: Inhibition of DYRK3 (unknown origin) at 1 uM incubated for 30 mins in presence of [gamma-33P]ATP by multidrop micro reagent based assay relative to control; values are per cent of control
T2 sequence (whole entry): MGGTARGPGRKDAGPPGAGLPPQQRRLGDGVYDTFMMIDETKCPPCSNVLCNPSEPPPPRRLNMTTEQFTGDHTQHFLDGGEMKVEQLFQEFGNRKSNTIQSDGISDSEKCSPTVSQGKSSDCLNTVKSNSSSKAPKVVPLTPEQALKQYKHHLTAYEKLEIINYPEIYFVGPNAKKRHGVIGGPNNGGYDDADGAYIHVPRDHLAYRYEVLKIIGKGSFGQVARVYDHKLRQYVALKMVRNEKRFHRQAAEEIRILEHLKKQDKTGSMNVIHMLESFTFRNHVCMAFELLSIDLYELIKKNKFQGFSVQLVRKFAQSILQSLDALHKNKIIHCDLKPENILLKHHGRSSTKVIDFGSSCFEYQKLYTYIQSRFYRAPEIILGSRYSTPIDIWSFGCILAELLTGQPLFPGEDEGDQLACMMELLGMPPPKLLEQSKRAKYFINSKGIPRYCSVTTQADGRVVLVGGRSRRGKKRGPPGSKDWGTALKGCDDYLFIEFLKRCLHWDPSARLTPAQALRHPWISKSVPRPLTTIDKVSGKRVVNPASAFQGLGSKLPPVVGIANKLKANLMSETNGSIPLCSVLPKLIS

[9] = biological target: T3, Serine/threonine-protein kinase Nek2 (Homo sapiens) (UniProt P51955); experiment: Inhibition of NEK2a (unknown origin) at 1 uM incubated for 30 mins in presence of [gamma-33P]ATP by multidrop micro reagent based assay relative to control; values are per cent of control
T3 sequence (whole entry): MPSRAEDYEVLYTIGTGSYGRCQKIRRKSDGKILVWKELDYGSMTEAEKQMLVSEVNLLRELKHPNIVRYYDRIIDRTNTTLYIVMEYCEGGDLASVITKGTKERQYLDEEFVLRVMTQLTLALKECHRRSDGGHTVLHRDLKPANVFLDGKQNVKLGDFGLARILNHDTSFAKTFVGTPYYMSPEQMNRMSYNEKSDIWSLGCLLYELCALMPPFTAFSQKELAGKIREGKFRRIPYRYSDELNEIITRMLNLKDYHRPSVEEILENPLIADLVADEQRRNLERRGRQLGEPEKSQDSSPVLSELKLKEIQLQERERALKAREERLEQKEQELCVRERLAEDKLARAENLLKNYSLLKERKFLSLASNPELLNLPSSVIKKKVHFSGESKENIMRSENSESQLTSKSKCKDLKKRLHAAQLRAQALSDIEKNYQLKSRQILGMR

Chain of Serine/threonine-protein kinase Nek6 (Homo sapiens) (Q9HC98 whole entry): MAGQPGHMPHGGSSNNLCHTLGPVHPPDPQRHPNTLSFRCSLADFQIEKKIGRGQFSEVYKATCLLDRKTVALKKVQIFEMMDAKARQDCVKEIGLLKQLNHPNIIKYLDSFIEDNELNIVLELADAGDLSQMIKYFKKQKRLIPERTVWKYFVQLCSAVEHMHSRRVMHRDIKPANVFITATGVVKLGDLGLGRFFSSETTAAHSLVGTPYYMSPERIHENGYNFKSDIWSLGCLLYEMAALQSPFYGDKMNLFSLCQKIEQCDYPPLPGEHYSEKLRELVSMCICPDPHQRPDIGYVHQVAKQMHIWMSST
Chain of Serine/threonine-protein kinase PAK 6 (Homo sapiens) (Q9NQU5 whole entry, looked up): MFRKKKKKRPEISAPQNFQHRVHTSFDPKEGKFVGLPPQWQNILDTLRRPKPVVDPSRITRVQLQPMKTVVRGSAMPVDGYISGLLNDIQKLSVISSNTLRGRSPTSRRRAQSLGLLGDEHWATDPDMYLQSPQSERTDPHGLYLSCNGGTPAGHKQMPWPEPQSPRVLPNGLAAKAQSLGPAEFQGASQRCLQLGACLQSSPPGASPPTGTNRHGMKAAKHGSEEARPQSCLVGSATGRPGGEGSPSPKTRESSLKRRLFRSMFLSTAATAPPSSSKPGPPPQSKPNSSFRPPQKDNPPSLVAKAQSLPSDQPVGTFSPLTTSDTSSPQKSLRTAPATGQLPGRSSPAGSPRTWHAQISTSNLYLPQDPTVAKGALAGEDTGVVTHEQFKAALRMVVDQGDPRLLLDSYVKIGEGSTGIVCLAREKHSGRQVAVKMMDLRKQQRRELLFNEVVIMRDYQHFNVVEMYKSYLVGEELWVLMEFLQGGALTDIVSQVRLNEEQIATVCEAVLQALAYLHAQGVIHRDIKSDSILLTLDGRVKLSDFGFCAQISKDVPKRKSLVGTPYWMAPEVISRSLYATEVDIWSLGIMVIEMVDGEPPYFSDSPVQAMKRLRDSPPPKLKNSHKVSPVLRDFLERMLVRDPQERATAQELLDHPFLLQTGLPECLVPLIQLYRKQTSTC
Chain of Aurora kinase B (Homo sapiens) (Q96GD4 whole entry): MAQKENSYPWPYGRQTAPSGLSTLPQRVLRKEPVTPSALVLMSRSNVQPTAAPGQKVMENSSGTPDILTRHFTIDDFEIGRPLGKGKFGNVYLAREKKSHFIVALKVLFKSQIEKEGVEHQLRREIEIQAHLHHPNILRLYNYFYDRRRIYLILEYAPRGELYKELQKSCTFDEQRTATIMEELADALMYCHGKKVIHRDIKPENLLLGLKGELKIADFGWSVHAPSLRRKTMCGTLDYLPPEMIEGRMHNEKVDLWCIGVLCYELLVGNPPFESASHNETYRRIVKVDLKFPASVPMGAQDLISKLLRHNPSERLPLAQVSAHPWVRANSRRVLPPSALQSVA
Chain of Insulin receptor-related protein (Homo sapiens) (P14616 27-742 limits assumed): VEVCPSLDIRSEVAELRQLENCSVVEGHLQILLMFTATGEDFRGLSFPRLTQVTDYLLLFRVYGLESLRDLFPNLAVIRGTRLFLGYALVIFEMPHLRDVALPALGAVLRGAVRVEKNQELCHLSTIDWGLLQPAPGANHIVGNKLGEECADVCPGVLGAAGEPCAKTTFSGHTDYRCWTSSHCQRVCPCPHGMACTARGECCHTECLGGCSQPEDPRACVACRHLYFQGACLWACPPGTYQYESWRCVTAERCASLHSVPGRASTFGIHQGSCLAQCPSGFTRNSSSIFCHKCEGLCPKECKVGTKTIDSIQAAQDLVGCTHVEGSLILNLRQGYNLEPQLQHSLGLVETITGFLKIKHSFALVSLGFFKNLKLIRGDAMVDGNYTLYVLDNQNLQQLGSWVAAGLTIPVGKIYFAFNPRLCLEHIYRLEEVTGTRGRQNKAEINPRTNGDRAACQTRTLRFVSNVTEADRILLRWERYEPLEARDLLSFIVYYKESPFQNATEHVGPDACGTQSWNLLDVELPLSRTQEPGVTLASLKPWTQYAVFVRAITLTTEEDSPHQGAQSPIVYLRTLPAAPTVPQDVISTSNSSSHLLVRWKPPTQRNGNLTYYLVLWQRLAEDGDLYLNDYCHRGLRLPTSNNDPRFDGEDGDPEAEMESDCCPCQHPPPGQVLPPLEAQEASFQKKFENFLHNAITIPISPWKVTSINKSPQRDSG
Chain of Insulin receptor-related protein (Homo sapiens) (P14616 747-1297 limits assumed): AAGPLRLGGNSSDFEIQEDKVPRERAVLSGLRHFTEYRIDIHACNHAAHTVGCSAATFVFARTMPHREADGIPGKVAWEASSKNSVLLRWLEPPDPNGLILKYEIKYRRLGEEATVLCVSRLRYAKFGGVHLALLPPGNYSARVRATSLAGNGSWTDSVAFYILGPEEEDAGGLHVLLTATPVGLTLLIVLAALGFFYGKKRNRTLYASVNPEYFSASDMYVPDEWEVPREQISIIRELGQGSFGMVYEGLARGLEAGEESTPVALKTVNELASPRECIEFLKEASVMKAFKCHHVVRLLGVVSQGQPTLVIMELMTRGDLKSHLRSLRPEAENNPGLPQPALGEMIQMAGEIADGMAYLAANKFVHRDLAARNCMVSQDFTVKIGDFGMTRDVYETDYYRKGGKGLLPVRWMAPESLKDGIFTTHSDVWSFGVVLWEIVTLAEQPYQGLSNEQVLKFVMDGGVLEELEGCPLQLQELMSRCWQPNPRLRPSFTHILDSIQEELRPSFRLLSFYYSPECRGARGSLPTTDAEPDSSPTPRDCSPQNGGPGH
Chain of Mitogen-activated protein kinase 14 (Homo sapiens) (Q16539 whole entry): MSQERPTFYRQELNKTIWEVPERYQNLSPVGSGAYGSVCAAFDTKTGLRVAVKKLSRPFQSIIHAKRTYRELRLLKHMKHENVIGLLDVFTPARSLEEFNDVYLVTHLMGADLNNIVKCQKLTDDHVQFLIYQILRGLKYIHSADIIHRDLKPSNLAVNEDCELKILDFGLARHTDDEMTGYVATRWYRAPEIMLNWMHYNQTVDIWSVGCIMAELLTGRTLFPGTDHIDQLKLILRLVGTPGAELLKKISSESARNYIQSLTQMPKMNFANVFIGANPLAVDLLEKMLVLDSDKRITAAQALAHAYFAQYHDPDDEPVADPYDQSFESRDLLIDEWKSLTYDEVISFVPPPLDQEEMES

SMILES | residual activity [1] | residual activity [2] | residual activity [3] | residual activity [4] | residual activity [5] | residual activity [6] | inhibition [7] | residual activity [8] | residual activity [9]
C[C@@H](N)[C@H]1CC[C@H](C(=O)Nc2ccncc2)CC1 | 79% | 61% | 103% | 79% | 80% | 96% |  |  | 
CCn1c(-c2nonc2N)nc2cnc(Oc3cccc(NC(=O)c4ccc(OCCN5CCOCC5)cc4)c3)cc21 [GSK-269962A] |  |  |  |  |  |  | 61% | 77% | 
O=S(=O)(c1cccc2cnccc12)N1CCCNCC1 [FASUDIL] | 51% | 51% | 108% | 46% | 107% | 110% |  |  | 
Cc1cncc2cccc(S(=O)(=O)N3CCCNC[C@@H]3C)c12 |  |  |  |  |  |  |  |  | 99%
CC1=C(C(=O)Nc2cc3cn[nH]c3cc2F)C(c2ccc(C(F)(F)F)cc2)CC(=O)N1 (stereo not drawn) |  |  |  |  |  |  | 106% | 94% | 106%
